Reference: ChEMBL document CHEMBL4823263, “Discovery of 2-(3-(3-Carbamoylpiperidin-1-yl)phenoxy)acetic Acid Derivatives as Novel Small-Molecule Inhibitors of the β-Catenin/B-Cell Lymphoma 9 Protein-Protein Interaction” (J Med Chem, 2021)
pIC50, pKi: −log10 of the molar value.

How the values were obtained:
[1] = molecular target: T1, beta-catenin-B-cell lymphoma 9 protein complex (Homo sapiens, UniProt P35222); assay: Inhibition of full length C-terminal 6-His-tagged beta-catenin (1 to 781 residues) (unknown origin) expressed in Escherichia coli BL21 (DE3)-N-terminal biotinylated human BCL9 (350 to 375 residues) protein-protein interaction incubated for 1 hr by Alphascreen assay
T1 sequence (P35222 whole entry): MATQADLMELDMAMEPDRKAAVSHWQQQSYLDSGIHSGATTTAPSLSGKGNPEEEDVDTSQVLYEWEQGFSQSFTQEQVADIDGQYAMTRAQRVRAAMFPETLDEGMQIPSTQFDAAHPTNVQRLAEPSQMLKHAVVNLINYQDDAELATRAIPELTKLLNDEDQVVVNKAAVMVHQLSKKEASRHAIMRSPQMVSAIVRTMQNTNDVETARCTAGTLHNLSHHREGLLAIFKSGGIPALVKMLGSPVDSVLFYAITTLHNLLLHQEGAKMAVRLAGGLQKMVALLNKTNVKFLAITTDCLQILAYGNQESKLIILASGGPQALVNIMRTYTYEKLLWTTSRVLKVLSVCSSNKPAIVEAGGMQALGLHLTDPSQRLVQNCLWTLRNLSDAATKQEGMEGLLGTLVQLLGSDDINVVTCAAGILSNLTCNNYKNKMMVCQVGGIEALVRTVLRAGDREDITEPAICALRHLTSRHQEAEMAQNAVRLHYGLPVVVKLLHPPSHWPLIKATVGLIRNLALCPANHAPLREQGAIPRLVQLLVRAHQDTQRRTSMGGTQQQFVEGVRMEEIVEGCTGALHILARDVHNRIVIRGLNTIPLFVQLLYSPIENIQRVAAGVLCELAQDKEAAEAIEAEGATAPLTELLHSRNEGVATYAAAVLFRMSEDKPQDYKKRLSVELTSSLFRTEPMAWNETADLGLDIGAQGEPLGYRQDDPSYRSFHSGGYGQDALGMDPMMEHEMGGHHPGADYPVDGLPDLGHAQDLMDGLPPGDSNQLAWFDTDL
T1 sequence (O00512 whole entry): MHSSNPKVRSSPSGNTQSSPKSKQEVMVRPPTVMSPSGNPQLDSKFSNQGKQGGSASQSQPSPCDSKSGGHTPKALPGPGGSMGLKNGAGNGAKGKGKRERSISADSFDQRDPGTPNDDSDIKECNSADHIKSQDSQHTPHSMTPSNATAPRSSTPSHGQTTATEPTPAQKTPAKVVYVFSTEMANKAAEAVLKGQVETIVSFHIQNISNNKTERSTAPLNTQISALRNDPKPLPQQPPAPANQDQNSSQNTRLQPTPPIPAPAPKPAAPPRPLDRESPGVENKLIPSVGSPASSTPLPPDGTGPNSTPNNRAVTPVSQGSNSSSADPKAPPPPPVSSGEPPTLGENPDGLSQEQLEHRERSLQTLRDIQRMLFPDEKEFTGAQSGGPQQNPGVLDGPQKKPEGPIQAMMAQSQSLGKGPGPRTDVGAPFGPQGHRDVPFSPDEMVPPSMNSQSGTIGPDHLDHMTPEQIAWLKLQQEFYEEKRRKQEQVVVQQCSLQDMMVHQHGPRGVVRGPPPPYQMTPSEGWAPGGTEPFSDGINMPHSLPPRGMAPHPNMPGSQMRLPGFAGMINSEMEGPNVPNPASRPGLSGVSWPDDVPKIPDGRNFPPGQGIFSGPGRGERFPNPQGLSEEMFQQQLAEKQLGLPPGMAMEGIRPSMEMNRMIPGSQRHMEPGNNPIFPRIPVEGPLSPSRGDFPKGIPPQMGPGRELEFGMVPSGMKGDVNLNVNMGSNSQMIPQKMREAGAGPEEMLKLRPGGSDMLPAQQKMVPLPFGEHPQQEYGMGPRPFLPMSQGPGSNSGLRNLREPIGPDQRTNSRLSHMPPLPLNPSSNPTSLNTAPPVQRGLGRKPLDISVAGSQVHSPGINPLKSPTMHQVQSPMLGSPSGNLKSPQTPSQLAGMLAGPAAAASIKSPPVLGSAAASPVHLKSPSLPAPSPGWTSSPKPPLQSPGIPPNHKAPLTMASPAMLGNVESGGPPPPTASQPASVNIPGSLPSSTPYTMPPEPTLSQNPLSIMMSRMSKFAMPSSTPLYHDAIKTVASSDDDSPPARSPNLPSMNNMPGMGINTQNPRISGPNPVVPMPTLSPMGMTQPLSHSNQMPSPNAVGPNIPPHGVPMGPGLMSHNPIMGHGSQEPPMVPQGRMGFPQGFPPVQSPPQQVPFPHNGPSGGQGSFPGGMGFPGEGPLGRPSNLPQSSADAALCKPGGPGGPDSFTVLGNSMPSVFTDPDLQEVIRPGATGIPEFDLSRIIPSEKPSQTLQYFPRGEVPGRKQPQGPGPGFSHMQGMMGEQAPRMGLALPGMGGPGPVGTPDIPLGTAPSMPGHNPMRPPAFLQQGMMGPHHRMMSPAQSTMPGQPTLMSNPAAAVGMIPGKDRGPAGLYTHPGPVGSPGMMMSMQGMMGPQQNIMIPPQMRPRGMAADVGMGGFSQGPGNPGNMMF

[2] = tested on: MDA-MB-231; assay: Antiproliferative activity against human MDA-MB-231 cells incubated for 72 hrs by MTS assay; assay type: functional, cell-based; details: MDA-MB-231, 72 h
[3] = tested on: SW480; assay: Antiproliferative activity against human SW480 cells incubated for 72 hrs by MTS assay; assay type: functional, cell-based; details: SW480, 72 h
[4] = tested on: MCF-10A; assay: Antiproliferative activity against human MCF10A cells incubated for 72 hrs by MTS assay; assay type: functional, cell-based
[5] = tested on: HCT-116; assay: Antiproliferative activity against human HCT116 cells incubated for 72 hrs by MTS assay; assay type: functional, cell-based; details: HCT-116, 72 h
[6] = tested on: MDA-MB-468; assay: Antiproliferative activity against human MDA-MB-468 cells incubated for 72 hrs by MTS assay; assay type: functional, cell-based; details: MDA-MB-468, 72 h
[7] = tested on: SW480; assay: (§1) Inhibition of Wnt/beta-catenin transactivation signalling in human SW480 cells harboring wild type tcf4 binding sites incubated for 24 hrs by TOPFlash luciferase assay; assay type: cell-based
[8] = as §1; assay type: cell-based
[9] = tested on: SW480; assay: Inhibition of Wnt/beta-catenin transactivation signalling in human SW480 cells harboring mutant tcf4 binding sites assessed as relative activity at 3.125 uM incubated for 24 hrs by FOPFlash luciferase assay relative to control; assay type: cell-based; set-up: scale not given: the % may be the effect or the level left
[10] = tested on: SW480; assay: Inhibition of Wnt/beta-catenin transactivation signalling in human SW480 cells harboring mutant tcf4 binding sites assessed as relative activity at 12.5 uM incubated for 24 hrs by FOPFlash luciferase assay relative to control; assay type: cell-based; set-up: scale not given: the % may be the effect or the level left
[11] = tested on: SW480; assay: Inhibition of Wnt/beta-catenin transactivation signalling in human SW480 cells harboring mutant tcf4 binding sites assessed as relative activity at 6.25 uM incubated for 24 hrs by FOPFlash luciferase assay relative to control; assay type: cell-based; set-up: scale not given: the % may be the effect or the level left

pIC50 [1]	pKi [1]	SMILES	also measured
5.15	5.24	CC(C)(Oc1cccc(N2CCCC(C(=O)N(Cc3ccc(-c4cccs4)cc3)C3CC3)C2)c1)C(=O)NS(=O)(=O)c1cccc(O)c1 (stereo unspecified)	
< 4.00	< 4.05	Cn1nccc1-c1ccc(CN(C(=O)C2CCCN(c3cccc(OC(C)(C)C(=O)O)c3)C2)C2CC2)cc1 (stereo unspecified)	
4.08	4.15	CC(C)c1ccc(CNC(=O)C2CCCN(c3cccc(OC(C)(C)C(=O)O)c3)C2)cc1 (stereo unspecified)	
< 4.00	< 4.05	COC(=O)C(C)(C)Oc1cccc(N2CCCC(C(=O)N(Cc3ccc(-c4cccs4)cc3)C3CC3)C2)c1 (stereo unspecified)	
4.62	4.68	CC(C)(Oc1cccc(N2CCCC(C(=O)N(Cc3ccc(-c4cccs4)cc3)C3CC3)C2)c1)C(=O)NS(C)(=O)=O (stereo unspecified)	
5.32	5.41	CC(C)(Oc1cccc(N2CCC[C@@H](C(=O)N(Cc3ccc(-c4cccs4)cc3)C3CC3)C2)c1)C(=O)NS(=O)(=O)c1ccc(C#N)cc1	
4.14	4.21	CC(C)(Oc1cccc(N2CCCC(C(=O)N(Cc3ccc(-c4ccn[nH]4)cc3)C3CC3)C2)c1)C(=O)O (stereo unspecified)	
5.20	5.29	CC(C)(Oc1cccc(N2CCCC(C(=O)N(Cc3ccc(-c4cccs4)cc3)C3CC3)C2)c1)C(=O)NS(=O)(=O)c1cccc(C#N)c1 (stereo unspecified)	
< 4.00	< 4.05	CC(C)(C)OC(=O)C(C)(C)Oc1cccc(N2CCCC(C(=O)N(Cc3ccc(-c4cccs4)cc3)C3CC3)C2)c1 (stereo unspecified)	pIC50 [2]: < 3.70; pIC50 [3]: < 3.70; pIC50 [4]: < 3.70; pIC50 [5]: < 3.70; pIC50 [6]: < 3.70
4.30	4.38	CC(C)(Oc1cccc(N2CCCC(C(=O)N(Cc3ccc(-c4ccco4)cc3)C3CC3)C2)c1)C(=O)O (stereo unspecified)	
5.21	5.31	COc1ccc(S(=O)(=O)NC(=O)C(C)(C)Oc2cccc(N3CCCC(C(=O)N(Cc4ccc(-c5cccs5)cc4)C4CC4)C3)c2)cc1 (stereo unspecified)	
5.32	5.41	CC(C)(Oc1cccc(N2CCCC(C(=O)N(Cc3ccc(-c4cccs4)cc3)C3CC3)C2)c1)C(=O)NS(=O)(=O)c1ccc(C#N)cc1 (racemic)	
4.82	4.89	CC(C)(Oc1cccc(N2CCCC(C(=O)N(Cc3ccc(-c4cccs4)cc3)C3CC3)C2)c1)C(=O)O (stereo unspecified)	pIC50 [2]: 3.99; pIC50 [3]: 3.86; pIC50 [4]: 4.01; pIC50 [5]: 3.95; pIC50 [6]: 4.02
4.40	4.44	CC(C)c1ccc(CN(C(=O)C2CCCN(c3cccc(OC(C)(C)C(=O)O)c3)C2)C2CC2)cc1 (stereo unspecified)	
4.23	4.30	CCN(Cc1ccc(C(C)C)cc1)C(=O)C1CCCN(c2cccc(OC(C)(C)C(=O)O)c2)C1 (stereo unspecified)	
4.28	4.34	CC(C)c1ccc(CN(C(=O)C2CCCN(c3cccc(OC(C)(C)C(=O)O)c3)C2)C(C)C)cc1 (stereo unspecified)	
4.89	4.96	CC(C)S(=O)(=O)NC(=O)C(C)(C)Oc1cccc(N2CCCC(C(=O)N(Cc3ccc(-c4cccs4)cc3)C3CC3)C2)c1 (stereo unspecified)	
4.15	4.23	CC(C)c1ccc(CN(C)C(=O)C2CCCN(c3cccc(OC(C)(C)C(=O)O)c3)C2)cc1 (stereo unspecified)	
5.24	5.34	COc1cccc(S(=O)(=O)NC(=O)C(C)(C)Oc2cccc(N3CCC[C@@H](C(=O)N(Cc4ccc(-c5cccs5)cc4)C4CC4)C3)c2)c1	
4.64	4.72	CC(C)(Oc1cccc(N2CCCC(C(=O)N(Cc3ccc(-c4cccs4)cc3)C3CC3)C2)c1)C(=O)NS(=O)(=O)C1CC1 (stereo unspecified)	
5.54	5.64	COc1cccc(S(=O)(=O)NC(=O)C(C)(C)Oc2cccc(N3CCC[C@H](C(=O)N(Cc4ccc(-c5cccs5)cc4)C4CC4)C3)c2)c1	Activity [7]: Dose-Dependent Effect; pIC50 [8]: 5.11; Activity [9]: 98%; pIC50 [2]: 4.70; Activity [10]: 54%; pIC50 [3]: 4.55; pIC50 [4]: 4.52; pIC50 [5]: 4.52; pIC50 [6]: 4.81; Activity [11]: 81%
5.29	5.39	COc1cccc(S(=O)(=O)NC(=O)C(C)(C)Oc2cccc(N3CCCC(C(=O)N(Cc4ccc(-c5cccs5)cc4)C4CC4)C3)c2)c1 (stereo unspecified)	
4.46	4.52	CC(C)(Oc1cccc(N2CCCC(C(=O)N(Cc3ccc(-c4ccsc4)cc3)C3CC3)C2)c1)C(=O)O (stereo unspecified)	
5.11	5.19	CC(C)(Oc1cccc(N2CCCC(C(=O)N(Cc3ccc(-c4cccs4)cc3)C3CC3)C2)c1)C(=O)NS(=O)(=O)c1ccccc1 (stereo unspecified)	
< 4.00	< 4.05	CC(C)(Oc1cccc(N2CCCC(C(=O)N(Cc3ccc(-c4cn[nH]c4)cc3)C3CC3)C2)c1)C(=O)O (stereo unspecified)	
< 4.00	< 4.05	Cn1cc(-c2ccc(CN(C(=O)C3CCCN(c4cccc(OC(C)(C)C(=O)O)c4)C3)C3CC3)cc2)cn1 (stereo unspecified)	
< 4.00	< 4.05	CC(C)(Oc1cccc(N2CCCC(C(=O)N(Cc3ccc(-c4ccoc4)cc3)C3CC3)C2)c1)C(=O)O (stereo unspecified)	
4.04	4.09	CC(C)c1ccc(CCNC(=O)C2CCCN(c3cccc(OC(C)(C)C(=O)O)c3)C2)cc1 (stereo unspecified)	
